# In patent US6348571B1, “Corticotropin release inhibiting factor and methods of using same” (Northwestern University, priority 1994, dated 2002):
# Ends that are not written are not given here.
# How the values were obtained:
# AtT-20 cells = assay: Bioassay of synthetic prepro-TRH peptides: ACTH secretion in AtT-20 cells; type: cell-based, mouse; conditions: peptide 10^-10-10^-6 M, 4 hours, 50 nM CRF
# Protocol: (§1) The bioactivity of various synthetic peptides corresponding to the various prepro-TRH intervening sequences was assessed in AtT-20 or primary anterior pituitary cells. All experiments were conducted in triplicate. To perform this assay, AtT-20 cells were plated at a density of 10^5 cells/well in 24 well plates. After 24 hours, the medium was removed and replaced with steroid-free medium containing the test peptide at a concentration of 10^−10-10^−6 M. When primary pituitary cultures were used, freshly dispersed anterior pituitary cells (1-2×10^5 cells/well) were plated in 24 well plates for 48 hours using steroid free media. Again, after 24 hours, the medium was removed and replaced with steroid-free medium containing the test peptide at a concentration of 10^−10-10^−6 M. The supernatants from the cells were harvested after 4 hours of incubation under unstimulated or CRF-stimulated conditions. AtT-20 cells were stimulated with 50 nM CRF and primary pituitary cells were stimulated with 10 nM CRF. The supernatants were centrifuged and stored at −80° C.
# ACTH-like immunoreactivity was measured using an antiserum which reacts with amino acids 1-24 and 1-39 on ACTH on an equimolar basis. The assay is described in Redei et al. (1988, Endocrinology, 123:2736-2743). For these studies, ^125I-ACTH 1-39 was used as a tracer. This assay is capable of detecting as little as 3 pg ACTH/tube. Intraassay and interassay coefficients of variation were 6.4% and 11.6% respectively.
# Peptides prepro-TRH 115-151, 160-169 and 178-199 were obtained from Penninsula Lab Inc. (Belmont, Calif.); peptides prepro-TRH 53-74, 83-106 and TRH precursor peptide (Lys-Arg-Gln-His-Pro-Gly-Lys-Arg) were obtained from American Peptide Co. Inc. (Sunnyvale, CA); and, peptides prepro-TRH 25-50, 208-220 and 230-255 were obtained from Quality Control QCB, Hopkington, Mass.
# [1] = test system: primary anterior pituitary cells; assay: Bioassay of synthetic prepro-TRH peptides: ACTH secretion in primary anterior pituitary cells; type: cell-based; conditions: primary pituitary cell cultures, 10 nM CRF
# Protocol: as §1
# ACTH-like immunoreactivity was measured using an antiserum which reacts with amino acids 1-24 and 1-39 on ACTH on an equimolar basis. The assay is described in Redei et al. (1988, Endocrinology, 123:2736-2743). For these studies, ^125I-ACTH 1-39 was used as a tracer. This assay is capable of detecting as little as 3 pg ACTH/tube. […]
# rats = assay: Side effects in rats treated in vivo with CRIF
# At-20 cells = assay: Inhibition of PMA- or forskolin-stimulated ACTH release in At-20 cells by small CRIF peptides; type: cell-based; conditions: PMA 100 nM, FIG. 18
# Protocol: FIG. 19 is a graph and amino acid sequences [SEQ ID NOS:1, 6 and 5, resepctively], where the graph depicts the fact that forskolin-stimulated ACTH secretion is inhibited by peptides derived from prepro-TRH 178-199. The biological activity of small CRIF peptides was tested in vitro, using inhibition of ACTH release in At-20 cells as the bioassay. These peptides were tested in 2-7 independent experiments, where treatments were added in triplicate. Forskolin was used at a concentration of 20 μM, and PMA was used at a concentration of 100 nM.
# CRIF peptides having either four contiguous amnino acids or nine contiguous amino acids positioned between the fourth and fifth TRH sequence in a rprepro-TRH polypeptide were prepared. These peptides are referred to herein as rprepro-TRH 196-199 (SEQ ID NO:5, having four contiguous amino acids) and rprepro-TRH 191-199 (SEQ ID NO:6, having nine contiguous amino acids). The CRIF activity of each of these peptides was assessed in vitro in a bioassay, wherein inhibition of ACTH release in At-20 cells was used as a measure of CRIF activity. Full length CRIF (rprepro-TRH 178-199) was used as a positive control. […] Thus, CRIF peptides having less than twenty two contiguous amino acids have CRIF activity.
# F344XBN rats = assay: Forced swim test after sub-acute icv administration; type: in vivo
# Protocol: In FIG. 20 there is shown data which establish that prepro-TRH 191-199 decreased immobility in the forced swim test when the peptide was administered to a rat icv. In this experiment, adult male Sprague-Dawley or F1 Brown Norway/Fisher344 rats were used in these experiments. Rats were implanted with cannulae into the lateral ventricle as described previously (McGivern, 1997, J. Neurosci. 17:4886-4894). For the stereotaxic surgery, animals were anesthetized (ketamine, 50 mg/kg/xylazine, 8 mg/kg) and positioned in a stereotaxic head fame. At the end of behavioral testing, placements will be verified by anesthetizing the animal with pentobarbital (45 mg/kg) and injecting 1 μl tryphan blue staining solution through the cannulae just prior to decapitation. Only data from animals with correct placement were included in the analysis.
# At least 7 days after the stereotaxic surgery, animals were subjected to an initial 15 minute swim pretest, followed by a 5-minute swim test 24 hours later. Rats received two injections of sterile vehicle or prepro-TRH 178-199 (1.5, 3.0, 6.0 or 12.0 μg/kg; 0.6, 1.2., 2.3 and 4.6 nmol/kg) in […] between the pretest and the test. 15 minutes after the initial (pre)-swim and 5 minutes before the test swim. In the case of prepro-TRH 191-199 administration, the C-terminal peptide was administered in this sub-acute fashion at 2.2 μg/kg (2.3 nmol/kg) dose, which is equivalent to 6 μg/kg prepro-TRH 178-199. Water was chosen instead of saline or artificial CSF for solubility reasons: the peptide dissolved much better in sterile, pyrogen-free water and animals tolerated this vehicle very well even after 14 days of daily administration. F344XBN rats were used. Prepro-TRH 191-199 had effects very similar to those of the full-length peptide.
# [2] = test system: SCW-induced inflammatory response; assay: Thyroid status and SCW-induced inflammatory response in female rats; type: in vivo, rat
# Description: RA is an autoimmune disease characterized by chronic degradation of the joints resulting from inflammation of synovial membranes. SCW-induced inflammation in the autoimmune prone female Lewis rat is an accepted animal model for the study of RA. […] It is likely that increased thyroid activity decreases the susceptibility to inflammatory immune disease by increasing glucocorticoid levels. The discovery of CRIF encoded within the same precursor as TRH establishes a direct link between the HPA and thyroid axes. Thyroid hormones may play a fundamental role in regulating the HPA axis by modulation of levels of prepro-TRH mRNA.
# To determine the role played by thyroid hormones and concomitant changes in the HPA axis in the development of SCW-induced inflammatory response, expression of genes which reflect the status of thyroid function (TRH), pituitary-adrenal activity (POMC) and inflammation (IL-1β and MIP-1α, a macrophage specific inflammatory protein) was measured. Adult female rats were fed a regular diet (control), or a regular diet plus 0.012% T4 (hyperthyroid) or 0.05% 6-propyl-thiouracil (PTU) supplied in the in drinking water (hypothyroid), for seven weeks. A preparation of SCW (20 μg/g of body weight) was administered intraperitoneally to the rats three days before decapitation. Anterior pituitary POMC, hypothalamic TRH and peritoneal macrophage IL-1β and MIP-1α mRNA levels were assessed by Northern blot hybridization analysis using specific cDNA probes. The levels of mRNA were normalized to the housekeeping gene, GAPD, and were quantified by image analysis densitometry. Plasma levels of TSH and CORT were determined by RIA.
compound,measurement,setting,value
"prepro-TRH 25-50: intervening peptide of rat prepro-TRH, amino acids 25-50 (LPEAAQEEGAVTPDLPGLENVQVRPE; UniProt P01150 25-50, looked up, fragment)",bioactivity: basal and CRF-stimulated ACTH secretion,AtT-20 cells,only the peptide comprising amino acids 178-199 exhibited bioactivity
KRQHPGKR [TRH precursor peptide],CRIF activity (ACTH secretion),[1],only peptide 178-199 exhibited CRIF activity
"prepro-TRH 208-220: intervening peptide of rat prepro-TRH, amino acids 208-220 (ALGHPCGPQGTCG; UniProt P01150 208-220, looked up, fragment)",bioactivity: basal and CRF-stimulated ACTH secretion,AtT-20 cells,only the peptide comprising amino acids 178-199 exhibited bioactivity
FIDPELQRSWEEKEGEGVLMPE [prepro-TRH 178-199],side effects associated with administration,rats,no discernible deleterious side effects
"prepro-TRH 83-106: intervening peptide of rat prepro-TRH, amino acids 83-106 (EEEEKDIEAEERGDLGEGGAWRLH; UniProt P01150 83-106, looked up, fragment)",bioactivity: basal and CRF-stimulated ACTH secretion,AtT-20 cells,only the peptide comprising amino acids 178-199 exhibited bioactivity
"Leu-Met-Pro-Glu (LMPE; printed: Leu-Met-Pro-Glu) [prepro-TRH 196-199, CRIF peptide having four contiguous amino acids]",PMA-stimulated ACTH secretion,At-20 cells,capable of inhibiting ACTH secretion at levels which are comparable to those achieved using full length CRIF
"prepro-TRH 53-74: intervening peptide of rat prepro-TRH, amino acids 53-74 (FLWKDLQRVRGDLGAALDSWIT; UniProt P01150 53-74, looked up, fragment)",bioactivity: basal and CRF-stimulated ACTH secretion,AtT-20 cells,only the peptide comprising amino acids 178-199 exhibited bioactivity
"EGEGVLMPE [prepro-TRH 191-199, CRIF peptide having nine contiguous amino acids]",floating in the forced swim test,"F344XBN rats; icv sub-acute, equimolar 2.3 nmol/kg (2.2 μg/kg 191-199; 6 μg/kg 178-199), p<0.001",significantly decreased
same,climbing in the forced swim test,"F344XBN rats; icv sub-acute, equimolar 2.3 nmol/kg (2.2 μg/kg 191-199; 6 μg/kg 178-199), p<0.01",increased
same,immobility in the forced swim test,"F344XBN rats; icv, rat",decreased
same,PMA-stimulated ACTH secretion,At-20 cells,capable of inhibiting ACTH secretion at levels which are comparable to those achieved using full length CRIF
"prepro-TRH 230-255: intervening peptide of rat prepro-TRH, amino acids 230-255 (DLSRGQETLVKQSPQVEPWDKEPLEE; UniProt P01150 230-255, looked up, fragment)",CRIF activity (ACTH secretion),[1],only peptide 178-199 exhibited CRIF activity
same,bioactivity: basal and CRF-stimulated ACTH secretion,AtT-20 cells,only the peptide comprising amino acids 178-199 exhibited bioactivity
"prepro-TRH 115-151: intervening peptide of rat prepro-TRH, amino acids 115-151 (ANQDKYSWADEEDSDWMPRSWLPDFFLDSWFSDVPQV; UniProt P01150 115-151, looked up, fragment)",bioactivity: basal and CRF-stimulated ACTH secretion,AtT-20 cells,only the peptide comprising amino acids 178-199 exhibited bioactivity
"CCCc1cc(=O)[nH]c(=S)[nH]1 [PTU, 6-propyl-thiouracil]",increase in macrophage MIP-1α mRNA levels on SCW administration,"[2]; SCW 20 μg/g ip, SCW-administered control rats 17-fold",22 fold
same,plasma CORT levels,"[2]; altered thyroid status, FIG. 12E",significant decrease
same,increase of hypothalamic TRH mRNA levels,"[2]; hypothyroid group, 0.05% in drinking water, seven weeks, p<0.01",52%
"prepro-TRH 160-169: intervening peptide of rat prepro-TRH, amino acids 160-169 (SFPWMESDVT; UniProt P01150 160-169, looked up, fragment)",bioactivity: basal and CRF-stimulated ACTH secretion,AtT-20 cells,only the peptide comprising amino acids 178-199 exhibited bioactivity
